{
  "source": "patent US20190133997A1",
  "about": "“ARTEMISININ ANALOG, AND USE, METHOD, AND COMPOSITION FOR PROMOTING LIPID CATABOLISM AND IMPROVING SUGAR METABOLISM” (FUDAN UNIVERSITY, priority 2016, published 2019)",
  "key": {"[1]": {"system": "obese mice induced by high-fat diet", "test": "Subcutaneous artemether, glucose and insulin tolerance tests in high-fat diet obese mice", "type": "in vivo, Male C57BL/6J mice", "conditions": "subcutaneous injection, eight weeks", "protocol": "(§1) The mice were breeded in the SPF animal laboratory of the Laboratory Animal Center of Fudan University at a room temperature of 21° C.-23° C. with a 12-hour light/dark cycle. […] When the mice were grown to 8-week old, they were randomly divided into a control group and an administration group, with 8 mice in each group. While the mice were fed with a high-fat diet, artemether was injected subcutaneously. Artemether was diluted in PBS at a concentration of […], and injected into bilateral inguinal region, with 200 μl being injected into each side. Mice in control group were injected with the same volume of PBS. Administration was continued for eight weeks.\nThe mice were fasted for 12-16 hours and injected intraperitoneally with glucose injection at a dose of […]. At 0 min, 30 min, 60 min, 90 min, and 120 min after injection, blood was collected from the tail vein, and blood glucose was measured with OneTouch ExtraEasy glucometer and OneTouch ExtraEasy blood glucose test strips and the results were recorded.\nInsulin was injected intraperitoneally at a dose of 0.75 U/kg weight. At 0 min, 15 min, 30 min, 45 min and 60 min after injection, blood was collected from the tail vein, and blood glucose was measured."}, "high fat-fed mice [2]": {"system": "high fat-fed mice", "test": "Subcutaneous artemether, cold exposure and UCP1 immunohistochemistry of subcutaneous fat in high fat-fed mice", "type": "in vivo, Male C57BL/6J mice", "conditions": "high-fat diet, subcutaneous injection, eight weeks", "protocol": "as §1, with “weeks. Mice were fasted and housed in a breeding box at 4° C. The rectal temperature was measured every 2 hours. The mice were sacrificed by cervical dislocation after 6 hours, and the inguinal fat was removed for histological analysis. The histological analysis including tissue fixation, paraffin embedding, sectioning and immunohistochemistry experiment of UCP1 was commissioned by Shanghai Saige Biotech Co., Ltd.” for “weeks.”"}, "high fat-fed mice [3]": {"system": "high fat-fed mice", "test": "Subcutaneous artemether, weight gain induced by high-fat diet", "type": "in vivo, Male C57BL/6J mice", "conditions": "eight weeks", "protocol": "as §1, with “weeks and the weight of mice was recorded weekly.” for “weeks.”"}, "[4]": {"test": "Intraperitoneal artemether 20 mg/kg, liver damage in healthy mice (HE staining)", "type": "in vivo, Male C57BL/6J mice", "protocol": "The mice were breeded in the SPF animal laboratory of the Laboratory Animal Center of Fudan University at a room temperature of 21° C.-23° C. with a 12-hour light/dark cycle. When the mice were grown to 8-week old, they were randomly divided into a control group and an administration group, with 8 mice in each group. Mice in administration group were injected intraperitoneally with artemether. Artemether for intraperitoneal injection was stored at 4° C. in coconut oil at a storage concentration of 6 mg/ml (20 mMol/L), and protected from light. Mice in administration group were injected with artemether at a dose of 20 mg/kg weight. Mice in control group were injected 100 μl coconut oil. Administration was twice a week for eight weeks. The mice were sacrificed by cervical dislocation, and liver tissues of mice were removed and fixed. Liver tissue fixation, paraffin embedding, sectioning and HE staining was commissioned by Shanghai Saige Biotech Co., Ltd."}, "BMP4-directed C3H10T1/2": {"system": "BMP4-directed C3H10T1/2", "test": "Artemisinin and analogues on BMP4-directed C3H10T1/2 (morphology, Western blot)", "type": "cell-based", "conditions": "concentration shown in FIG. 8, from Day 0 of differentiation; vs control", "protocol": "4.3.1 Culture and Differentiation of C3H10T1/2 According to Method 2.4.1.\nArtemisinin, artesunate and dihydroartemisinin were stored in DMSO at a storage concentration of 10 mMol/L. The concentration shown in FIG. 8 was added on Day 0 of differentiation. Fresh medium was replaced every two days, and the corresponding concentrations of compounds were added until the cells differentiated to mature.\nThe method for extracting C3H10T1/2 cell total protein was the same as 2.4.3;\nWestern blot method and catalog number of antibody was the same as 2.4.4."}, "high fat-fed mice [5]": {"system": "high fat-fed mice", "test": "Subcutaneous artemether, adipose tissue in high fat-fed mice", "type": "in vivo, Male C57BL/6J mice", "conditions": "high-fat diet, subcutaneous injection, eight weeks", "protocol": "as §1, with “weeks. The mice were sacrificed by cervical dislocation and were dissected, and inguinal fat (Inguinal, subcutaneous fat), epididymal fat (Gonadal, visceral fat) and brown fat in the interscapular region (BAT, classic brown fat) were removed, weighed and fixed. The histological analysis of adipose tissue was commissioned by Shanghai Saige Biotech Co., Ltd. The histological analysis process included the steps of fixing, paraffin embedding, sectioning and HE staining.” for “weeks.”"}, "ob/ob mice": {"system": "ob/ob mice", "test": "Intraperitoneal artemether, fatty liver in diabetic ob/ob mice", "type": "in vivo, Male ob/ob mice", "conditions": "intraperitoneal 20 mg/kg twice a week, eight weeks", "protocol": "Ob/ob mice were breeded in the SPF animal laboratory of the Laboratory Animal Center of Fudan University at a room temperature of 21° C.-23° C. with a 12-hour light/dark cycle. When the mice were grown to 4-week old, they were randomly divided into a control group and an administration group, with 4 mice in each group. Mice in administration group were injected intraperitoneally with artemether. Artemether for intraperitoneal injection was stored at 4° C. in coconut oil at a storage concentration of 6 mg/ml (20 mMol/L), and protected from light. Ob/ob mice in administration group were injected with artemether at a dose of 20 mg/kg weight. Administration was twice a week for eight weeks. The mice were sacrificed by cervical dislocation, and liver tissues of mice were removed, fixed and paraffin embedded. The histological analysis was commissioned by Shanghai Saige Biotech Co., Ltd."}},
  "data": [
    {"smiles": "CO[C@H]1O[C@@H]2O[C@@]3(C)CC[C@H]4[C@H](C)CC[C@@H]([C@H]1C)[C@@]24OO3", "note": "[artemether]", "values": [
      {"measurement": "glucose tolerance", "setting": "[1]", "value": "significantly better than that of mice in control group"},
      {"measurement": "insulin tolerance", "setting": "[1]", "value": "significantly better than that of mice in control group"},
      {"measurement": "body temperature in an environment of 4° C.", "setting": "high fat-fed mice [2]", "value": "significantly higher than that of mice in control group"},
      {"measurement": "UCP1 expression in subcutaneous fat (immunohistochemistry)", "setting": "high fat-fed mice [2]; after 6 hours at 4° C.", "value": "exhibited significant UCP1 expression"},
      {"measurement": "weight of mice", "setting": "high fat-fed mice [3]; subcutaneous injection 15 Mol/L in PBS, 200 μl each inguinal side, statistically different after six weeks", "value": "significantly lower than that of mice in control group"},
      {"measurement": "weight gain of mice", "setting": "high fat-fed mice [3]; subcutaneous injection", "value": "significantly slower than that of mice in control group"},
      {"measurement": "morphology of liver cells", "setting": "[4]; healthy lean mice, intraperitoneal 20 mg/kg twice a week, eight weeks", "value": "normal, and had no difference from that of mice in control group"},
      {"measurement": "hepatotoxicity", "setting": "[4]; intraperitoneal 20 mg/kg weight twice a week for eight weeks", "value": "no hepatotoxicity"},
      {"measurement": "cell morphology of C3H10T1/2", "setting": "BMP4-directed C3H10T1/2", "value": "exhibited brown adipocyte-like characteristics"},
      {"measurement": "adipocyte size (sectioning and HE staining)", "setting": "high fat-fed mice [5]", "value": "significantly smaller than that of mice in control group"},
      {"measurement": "volume of adipose tissue (inguinal fat, epididymal fat and brown fat)", "setting": "high fat-fed mice [5]", "value": "significantly smaller than that of mice in control group"},
      {"measurement": "weight of adipose tissue (inguinal fat, epididymal fat and brown fat)", "setting": "high fat-fed mice [5]", "value": "significantly smaller than that of mice in control group"},
      {"measurement": "fatty liver of ob/ob mice (HE staining)", "setting": "ob/ob mice", "value": "significantly relieved"}
    ]}
  ]
}
